The structures appear in SMILES notation.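 Where inhibition never reached the appropriate level, the endpoint shown equals the highest concentration tested. Otherwise, values were interpolated linearly from a five-concentration, 48-hour dose response in 96-well plates. TGI denotes the concentration required for complete inhibition of growth.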

The first assay has as its system A549 NSCLC. Description: NCI anticancer screen, dose series, 48 h.
In turn, `Clc1ccc(C=Nc2ccc(Oc3ccc(Cl)cc3)c(Cl)c2)cc1` came in with a TGI of 59.1 µM.
Same read-out and setting: the same measure for `COC(=O)[C@H](Cc1ccccc1)NC(=O)c1ccc(CNC(=O)/C=C/c2csc(-c3ccccc3)n2)cc1`: over 72.2 µM.
Same read-out and setting: the same measure for `N#Cc1ccccc1OCCOc1ccccc1C#N`: over 100 µM; for `CCN(/C=C1/C(=O)C(c2ccccc2)N(c2ccccc2)C1=O)CC` (stereo unspecified): over 10 µM.
On the same count and under the same terms, the same measure for `O=[N+]([O-])c1ccc(/C=N/Nc2nc3ccccc3[nH]2)o1`: 30.4 µM; for `Cc1cccc2sc(NC(=O)NS(=O)(=O)n3cnc4ccccc43)nc12`: over 100 µM; for `COC(=O)C1CCC(=O)N1CN(C(C)=O)c1cccc(O)c1` (stereo unspecified): over 100 µM.
As to `COc1ccc2nc3c(c(N)c2c1)C1CCC3C1(C)C` (stereo unspecified), the TGI was over 100 µM.
Same read-out and setting: next, `CCOC(=O)c1c(NC(=O)c2ccccc2)c(C#N)c2n1CCCCC2`: over 100 µM; `Oc1c(N2CCCCC2)cc(-c2cc(N3CCCCC3)c(O)c3ccccc23)c2ccccc12`: over 100 µM; `O=c1cc(Nc2cccc(O)c2)[nH]c(=O)[nH]1`: over 100 µM.
As for `C[C@H]1CC[C@@]2(OC1)O[C@H]1C[C@H]3[C@@H]4CC[C@@H]5C[C@@H](OC6OC(CO)C(O)C(O)C6OC6OC(CO)C(O)C(O)C6O)CC[C@]5(C)[C@H]4CC[C@]3(C)[C@H]1[C@@H]2C` (stereo partly specified), the TGI was found to be 3.69 µM.
Same read-out and setting: the same measure for `O=C(Nn1c(-c2ccccc2)nc2ccccc2c1=O)c1ccc(Cl)cc1`: over 100 µM; for `Cc1nc2sc3cccc(Cl)c3n2c(=O)c1N=Nc1ccc(Cl)cc1`: over 100 µM; for `Cc1cc(N(CCC#N)CCC#N)ccc1/C(N=Nc1ccccc1)=N\NC(=O)c1cc(Cl)ccc1O`: over 100 µM.
For `CSC(=O)/C=C1\SS/C(=C\C(=O)SC)S1`, the TGI was 19.6 µM.
Same read-out and setting: next, `Cc1ccc(N=N/C(=N/NC(=O)c2ccccc2)c2ccc(N(CCC#N)CCC#N)cc2C)cc1`: over 100 µM; `CCCCCCCCCCCCCCCCCCNc1ccn(C2OC(COP(=O)(O)OCC3OC(n4ccc(N)nc4=O)C(O)C3O)C(O)C2O)c(=O)n1` (stereo unspecified): over 100 µM.
Still for that read-out and setting: the same measure for `Cc1ccc(S[C@@](C=O)(NC(=O)OCc2ccccc2)C(F)(F)F)cc1`: 88.3 µM; for `CCOc1cnc(C(O)(c2ccccc2)c2ccccc2)o1`: over 100 µM.
Same read-out and setting: the same measure for `COC(CN(C)C(=S)Nc1cccc2ccccc12)OC`: over 10 µM.
`COc1ccc(CCCCNCc2cccc(CNCCCCc3ccc(OC)cc3)c2)cc1`: the TGI is 4.86 µM.

For the next assay, the system named is T-47D breast. Put plainly: NCI anticancer screen, dose series, 48 h.
`Clc1ccc(C=Nc2ccc(Oc3ccc(Cl)cc3)c(Cl)c2)cc1` came in with a TGI of 89.8 µM.
For the compound `COC(=O)[C@H](Cc1ccccc1)NC(=O)c1ccc(CNC(=O)/C=C/c2csc(-c3ccccc3)n2)cc1`, the TGI stood at 7.12 µM.
On the same count and under the same terms, the same measure for `N#Cc1ccccc1OCCOc1ccccc1C#N`: over 100 µM; for `CCN(/C=C1/C(=O)C(c2ccccc2)N(c2ccccc2)C1=O)CC` (stereo unspecified): over 10 µM; for `O=[N+]([O-])c1ccc(/C=N/Nc2nc3ccccc3[nH]2)o1`: 35.8 µM.
On the same count and under the same terms, the same measure for `Cc1cccc2sc(NC(=O)NS(=O)(=O)n3cnc4ccccc43)nc12`: 62.6 µM; for `COC(=O)C1CCC(=O)N1CN(C(C)=O)c1cccc(O)c1` (stereo unspecified): over 100 µM.
Same read-out and setting: next, `COc1ccc2nc3c(c(N)c2c1)C1CCC3C1(C)C` (stereo unspecified): over 100 µM.
Turning to `CCOC(=O)c1c(NC(=O)c2ccccc2)c(C#N)c2n1CCCCC2`, the TGI is over 100 µM.
The same measure, in the same setting: next, `Oc1c(N2CCCCC2)cc(-c2cc(N3CCCCC3)c(O)c3ccccc23)c2ccccc12`: over 100 µM; `O=c1cc(Nc2cccc(O)c2)[nH]c(=O)[nH]1`: over 100 µM.
The same measure, in the same setting: next, `C[C@H]1CC[C@@]2(OC1)O[C@H]1C[C@H]3[C@@H]4CC[C@@H]5C[C@@H](OC6OC(CO)C(O)C(O)C6OC6OC(CO)C(O)C(O)C6O)CC[C@]5(C)[C@H]4CC[C@]3(C)[C@H]1[C@@H]2C` (stereo partly specified): 3.85 µM.
Same read-out and setting: next, `O=C(Nn1c(-c2ccccc2)nc2ccccc2c1=O)c1ccc(Cl)cc1`: over 100 µM; `Cc1nc2sc3cccc(Cl)c3n2c(=O)c1N=Nc1ccc(Cl)cc1`: over 100 µM; `Cc1cc(N(CCC#N)CCC#N)ccc1/C(N=Nc1ccccc1)=N\NC(=O)c1cc(Cl)ccc1O`: 55.9 µM.
The compound `CSC(=O)/C=C1\SS/C(=C\C(=O)SC)S1` yielded a TGI of 20.6 µM.
Consider `Cc1ccc(N=N/C(=N/NC(=O)c2ccccc2)c2ccc(N(CCC#N)CCC#N)cc2C)cc1`, for which the TGI is over 100 µM.
Consider `CCCCCCCCCCCCCCCCCCNc1ccn(C2OC(COP(=O)(O)OCC3OC(n4ccc(N)nc4=O)C(O)C3O)C(O)C2O)c(=O)n1` (stereo unspecified), for which the TGI is over 100 µM.
Regarding `Cc1ccc(S[C@@](C=O)(NC(=O)OCc2ccccc2)C(F)(F)F)cc1`, the TGI was 71 µM.
Same read-out and setting: next, `CCOc1cnc(C(O)(c2ccccc2)c2ccccc2)o1`: over 100 µM; `COC(CN(C)C(=S)Nc1cccc2ccccc12)OC`: over 10 µM.
Same read-out and setting: next, `COc1ccc(CCCCNCc2cccc(CNCCCCc3ccc(OC)cc3)c2)cc1`: 4.35 µM.

For a further assay, the system named is U251 CNS. Description: NCI anticancer screen, dose series, 48 h.
Compound `Clc1ccc(C=Nc2ccc(Oc3ccc(Cl)cc3)c(Cl)c2)cc1` gave a TGI of 60.5 µM.
For the compound `COC(=O)[C@H](Cc1ccccc1)NC(=O)c1ccc(CNC(=O)/C=C/c2csc(-c3ccccc3)n2)cc1`, the TGI is over 72.1 µM.
Still for that read-out and setting: the same measure for `N#Cc1ccccc1OCCOc1ccccc1C#N`: over 100 µM.
The same measure, in the same setting: the same measure for `CCN(/C=C1/C(=O)C(c2ccccc2)N(c2ccccc2)C1=O)CC` (stereo unspecified): over 10 µM.
The same measure, in the same setting: next, `O=[N+]([O-])c1ccc(/C=N/Nc2nc3ccccc3[nH]2)o1`: 92.8 µM; `Cc1cccc2sc(NC(=O)NS(=O)(=O)n3cnc4ccccc43)nc12`: 48.2 µM; `COC(=O)C1CCC(=O)N1CN(C(C)=O)c1cccc(O)c1` (stereo unspecified): over 100 µM.
Regarding `COc1ccc2nc3c(c(N)c2c1)C1CCC3C1(C)C` (stereo unspecified), the TGI is over 100 µM.
Still for that read-out and setting: the same measure for `CCOC(=O)c1c(NC(=O)c2ccccc2)c(C#N)c2n1CCCCC2`: over 100 µM; for `Oc1c(N2CCCCC2)cc(-c2cc(N3CCCCC3)c(O)c3ccccc23)c2ccccc12`: over 100 µM; for `O=c1cc(Nc2cccc(O)c2)[nH]c(=O)[nH]1`: over 100 µM.
In turn, `C[C@H]1CC[C@@]2(OC1)O[C@H]1C[C@H]3[C@@H]4CC[C@@H]5C[C@@H](OC6OC(CO)C(O)C(O)C6OC6OC(CO)C(O)C(O)C6O)CC[C@]5(C)[C@H]4CC[C@]3(C)[C@H]1[C@@H]2C` (stereo partly specified) came in with a TGI of 4 µM.
On the same count and under the same terms, next, `O=C(Nn1c(-c2ccccc2)nc2ccccc2c1=O)c1ccc(Cl)cc1`: over 100 µM; `Cc1nc2sc3cccc(Cl)c3n2c(=O)c1N=Nc1ccc(Cl)cc1`: over 100 µM.
Still for that read-out and setting: the same measure for `Cc1cc(N(CCC#N)CCC#N)ccc1/C(N=Nc1ccccc1)=N\NC(=O)c1cc(Cl)ccc1O`: over 100 µM.
The same measure, in the same setting: next, `CSC(=O)/C=C1\SS/C(=C\C(=O)SC)S1`: 6.03 µM; `Cc1ccc(N=N/C(=N/NC(=O)c2ccccc2)c2ccc(N(CCC#N)CCC#N)cc2C)cc1`: over 100 µM.
`CCCCCCCCCCCCCCCCCCNc1ccn(C2OC(COP(=O)(O)OCC3OC(n4ccc(N)nc4=O)C(O)C3O)C(O)C2O)c(=O)n1` (stereo unspecified) returned a TGI of over 100 µM.
In turn, `Cc1ccc(S[C@@](C=O)(NC(=O)OCc2ccccc2)C(F)(F)F)cc1` yielded a TGI of 40.7 µM.
On the same count and under the same terms, the same measure for `CCOc1cnc(C(O)(c2ccccc2)c2ccccc2)o1`: over 100 µM.
On the same count and under the same terms, the same measure for `COC(CN(C)C(=S)Nc1cccc2ccccc12)OC`: over 10 µM; for `COc1ccc(CCCCNCc2cccc(CNCCCCc3ccc(OC)cc3)c2)cc1`: 3.71 µM.

The record behind these values is PubChem BioAssay (NCI).
